Measured values published in patent publication US11795151B2, “Benzotriazole compound” (MIYOSHI OIL & FAT CO., LTD., priority 2017, dated 2023).

Columns and labels:
Type in all cases: physicochemical
[1] = Evaluation of 5% weight reduction temperature (2) (TG/DTA); conditions: temperature increasing rate 10° C./min, 25° C. to 550° C.
Procedure: (§1) The compounds of the present invention were measured using a differential thermogravimetric simultaneous measurement device (TG/DTA6200, manufactured by SII Corporation) at a temperature increasing rate of 10° C./min and within a measurement range of 25° C. to 550° C., and the temperature at which 5 w % reduction as the weight change (TG) took place was read (Table 9).

[2] = Evaluation of 5% weight reduction temperature (1) (TG/DTA); conditions: temperature increasing rate 10° C./min, 25° C. to 550° C.
Procedure: as §1, with “Compounds 1 to 8 and 10 to 12 were” for “The compounds of the present invention were”, “5 wt” for “5 w”, “(Table 6).” for “(Table 9).”

[3] = Evaluation of UV absorption performance (2): absorbance spectra in chloroform; conditions: 100 μM; for Absorbance at absoprtion peak in wavelength region of 350 to 390 nm / Absorbance at peak end / Absorption wavelength at peak end / Molar extinction coefficient at peak (maximum molar extinction coefficient: εmax) / Wave length at absorption peak in wavelength region of 350 to 390 nm (maximum absorption wavelength: λmax): 10-mm quartz cell; for Absolute value of slope of absorption peak on long wavelength side in wavelength region of 350 to 390 nm: Equation 4
Procedure: Compounds 11 to 28 were diluted with 100 μM of chloroform and placed in a 10-mm quartz cell, and the absorbance spectra were measured using an ultraviolet-visible spectrophotometer (V-550, manufactured by JASCO Corporation)(FIGS. 11,12,14 to 29).
The absorption peak (maximum absorption wavelength: max) and absorbance in the wavelength range of 350 to 390 nm were read from the absorption spectra of Compounds 11 to 28, and a molar extinction coefficient (maximum molar extinction coefficient: εmax) of the peak was obtained by the following formula (Table 7): Molar extinction coefficient:εmax(L/(mol·cm))=A:Absorbance/[c:Mol concentration(mol/L)×1:Cell optical length(cm)] [Equation 3]
In addition, from the absorption spectra of Compounds 11 to 28, assuming that an intersection of a long-wavelength side absorption spectrum in the absorption peak at 350 to 390 nm and a baseline (a line where the slope of the absorption spectrum at […] is zero) is set as a peak end (for example: FIG. 1), the absolute value of the slope of the absorption peak on the long-wavelength side in the wavelength region at 350 to 390 nm was obtained by the following equation (Table 8): |Slope of absorption peak on long wavelength side in wavelength region of 350 to 390n|=|(Absorbance at peak end−Absorbance at absorption peak in wavelength region of 350 to 390 nm)/(Absorption wavelength at peak end−Wave length at absorption peak in wavelength region of 350 to 390 nm)| [Equation 4]

[4] = Maximum solubility in various monomers; conditions: room temperature (20 to 30° C.), 4 hours
[5] = Evaluation of UV absorption performance (1): absorbance spectra in chloroform; conditions: 100 μM; for Absorbance at absorption peak in wavelength region of 350 to 390 nm / Absorbance at peak end / Absorption wavelength at peak end / Molar extinction coefficient at peak (maximum molar extinction coefficient: εmax) / Wave length at absorption peak in wavelength region of 350 to 390 nm (maximum absorption wavelength: λmax): 10-mm quartz cell; for Absolute value of slope of absorption peak on long wavelength side in wavelength region of 350 to 390 nm: Equation 2
Procedure: Compounds 1 to 12 were diluted with 100 μM of chloroform, placed in a 10-mm quartz cell, and the absorbance spectra were measured using an ultraviolet-visible spectrophotometer (V-550, manufactured by JASCO Corporation)(FIGS. 1 to 12).
The absorption peak (maximum absorption wavelength: λmax) and absorbance in the wavelength range of 350 to 390 nm were read from the absorption spectra of Compounds 1 to 12, and the molar extinction coefficient of the peak (maximum molar extinction coefficient: εmax) was obtained by the following equation (able 1). Molar extinction coefficient:εmax(L/(mol·cm))=A:Absorbance/[c:Mol concentration(mol/L)×1:Cell optical length(cm)] [Equation 1]
In addition, from the absorption spectra of Compounds 1 to 12, assuming that an intersection of a long-wavelength side absorption spectrum in the absorption peak at 350 to 390 nm and a baseline (a line where the slope of the absorption spectrum at 380 to 500 nm is zero) is set as a […] (for example: FIG. 1), the absolute value of the slope of the absorption peak on the long-wavelength side in the wavelength region at 350 to 390 nm was obtained by the following equation: |Slope of absorption peak on long wavelength side in wavelength region of 350 to 390 nm|=|(Absorbance at peak end−Absorbance at absorption peak in wavelength region of 350 to 390 nm)/(Absorption wavelength at peak end−Wave length at absorption peak in wavelength region of 350 to 390 nm)| [Equation 2]

[6] = Maximum solubility in various monomers; conditions: acrylonitrile as a vinyl-based monomer; same evaluation method
Excerpt: With the same evaluation method, 2 wt % of Compound 1, 5 wt % of Compound 2, 5 wt % of Compound 3, and 1 wt % of Compound 4 were each soluble in acrylonitrile as a vinyl-based monomer as well.

SMILES	5% weight reduction temperature [1] [°C]	5% weight reduction temperature [2] [°C]	Absorbance at absoprtion peak in wavelength region of 350 to 390 nm [3]	Absorbance at peak end [3]	Absorption wavelength at peak end [3] [nm]	Molar extinction coefficient at peak (maximum molar extinction coefficient: εmax) [3] [L/mol/cm]	Wave length at absorption peak in wavelength region of 350 to 390 nm (maximum absorption wavelength: λmax) [3] [nm]	Absolute value of slope of absorption peak on long wavelength side in wavelength region of 350 to 390 nm [3]	Maximum solubility ([4]; Dimethylacrylamide) [wt %]	Maximum solubility ([4]; Hexadiene) [wt %]	Maximum solubility ([4]; Methyl (meth)acrylate) [wt %]	Maximum solubility ([4]; Styrene) [wt %]	Maximum solubility ([4]; Vinyl acetate) [wt %]	Absorbance at absorption peak in wavelength region of 350 to 390 nm [5]	Absorbance at peak end [5]	Absorption wavelength at peak end [5] [nm]	Molar extinction coefficient at peak (maximum molar extinction coefficient: εmax) [5] [L/mol/cm]	Wave length at absorption peak in wavelength region of 350 to 390 nm (maximum absorption wavelength: λmax) [5] [nm]	Absolute value of slope of absorption peak on long wavelength side in wavelength region of 350 to 390 nm [5]	Concentration soluble in acrylonitrile [6] [wt %]
C=CC(=O)OCCCCCCSc1ccc2nn(-c3cc(C)cc(C(C)(C)C)c3O)nc2c1 [Compound 1]									20	10	20	25	15	2.26	0.00766	422	22600	368		2
C=C(C)C(=O)OCCCCCCSc1ccc2nn(-c3cc(C)cc(C(C)(C)C)c3O)nc2c1 [Compound 4]											12	25		2.24	0.00762	420	22400	368		1
C=C(C)C(=O)OCCSc1ccc2nn(-c3cc(C)cc(C(C)(C)C)c3O)nc2c1 [Compound 2]		285							15	3	20	25	15	2.25	0.00727	421	21400	365		5
C=C(C)C(=O)OCCCSc1ccc2nn(-c3cc(C)cc(C(C)(C)C)c3O)nc2c1 [Compound 3]		292							11	5	20	25	12	2.18	0.00692	419	21600	367		5

Other lines, results leading:

5% weight reduction temperature [1] [°C]	5% weight reduction temperature [2] [°C]	Absorbance at absoprtion peak in wavelength region of 350 to 390 nm [3]	Absorbance at peak end [3]	Absorption wavelength at peak end [3] [nm]	Molar extinction coefficient at peak (maximum molar extinction coefficient: εmax) [3] [L/mol/cm]	Wave length at absorption peak in wavelength region of 350 to 390 nm (maximum absorption wavelength: λmax) [3] [nm]	Absolute value of slope of absorption peak on long wavelength side in wavelength region of 350 to 390 nm [3]	Maximum solubility ([4]; Dimethylacrylamide) [wt %]	Maximum solubility ([4]; Hexadiene) [wt %]	Maximum solubility ([4]; Methyl (meth)acrylate) [wt %]	Maximum solubility ([4]; Styrene) [wt %]	Maximum solubility ([4]; Vinyl acetate) [wt %]	Absorbance at absorption peak in wavelength region of 350 to 390 nm [5]	Absorbance at peak end [5]	Absorption wavelength at peak end [5] [nm]	Molar extinction coefficient at peak (maximum molar extinction coefficient: εmax) [5] [L/mol/cm]	Wave length at absorption peak in wavelength region of 350 to 390 nm (maximum absorption wavelength: λmax) [5] [nm]	Absolute value of slope of absorption peak on long wavelength side in wavelength region of 350 to 390 nm [5]	Concentration soluble in acrylonitrile [6] [wt %]	SMILES
277																				CCCCCCSc1ccc2nn(-c3cc(C)cc(C(C)(C)C)c3O)nc2c1 [Compound 29]
	249	1.83	0.0069	388	18300	341	0.038	10	2	11	21	11	1.83	0.0069	388	18300	341	0.038		C=C(C)C(=O)OCCc1ccc(O)c(-n2nc3ccccc3n2)c1 [Compound 11, reference compound]
230	230	1.76	0.00722	430	16300	353	0.032						1.53	0.00617	423	15300	353	0.022		Cc1cc(-n2nc3ccc(Cl)cc3n2)c(O)c(C(C)(C)C)c1 [Compound 12, reference compound]
	304												2.19	0.00728	422	21900	368			C/C=C/C(=O)OCCCCCCSc1ccc2nn(-c3cc(C)cc(C(C)(C)C)c3O)nc2c1 [Compound 7]
293																				Cc1ccc(Sc2ccc3nn(-c4cc(C)cc(C(C)(C)C)c4O)nc3c2)cc1 [Compound 30]
	252							≤9	1	≤10	≤20	≤10	1.76	0.00722	430	17600	375	0.032		C=CCSc1ccc2nn(-c3cc(C)cc(C(C)(C)C)c3O)nc2c1 [Compound 10, reference compound]
